The test system of this experiment is L1210 leukemia ip in BDF1 mice, survival T/C. As to the kind of experiment: NCI In Vivo Anticancer Drug Screen. Data for tumor model L1210 Leukemia (intraperitoneal) in B6D2F1 (BDF1) mice. To be noted: endpoint: mean survival time, higher = longer survival. The gist of the method: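 Each compound was tested against a transplantable tumor grown in mice. The endpoint was survival, with treated animals benchmarked against vehicle controls as a simple ratio.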

Setting [1] is: dose: 100.0 mg/kg/injection, schedule: Q01DX001 (ip), vehicle: carboxymethylcellulose (CMC).
The mark [2] stands for this setting: dose: 200.0 mg/kg/injection, schedule: Q01DX001 (ip), vehicle: carboxymethylcellulose (CMC).
[3] abbreviates: dose: 100.0 mg/kg/injection, schedule: Q04DX003 (ip), vehicle: saline with Tween-80.
Where [4] appears, read: dose: 200.0 mg/kg/injection, schedule: Q04DX003 (ip), vehicle: saline with Tween-80.
Setting [5] is: dose: 400.0 mg/kg/injection, schedule: Q04DX003 (ip), vehicle: saline with Tween-80.
Setting [6] is: dose: 100.0 mg/kg/injection, schedule: Q01DX001 (ip), vehicle: Klucel (hydroxypropylcellulose) (HPC).
[7] abbreviates: dose: 200.0 mg/kg/injection, schedule: Q01DX001 (ip), vehicle: Klucel (hydroxypropylcellulose) (HPC).
Where [8] appears, read: dose: 100.0 mg/kg/injection, schedule: Q04DX003 (ip), vehicle: saline.
Setting [9] is: dose: 200.0 mg/kg/injection, schedule: Q04DX003 (ip), vehicle: saline.
[10] abbreviates: dose: 400.0 mg/kg/injection, schedule: Q04DX003 (ip), vehicle: saline.
Setting [11] is: dose: 75.0 mg/kg/injection, schedule: Q01DX001 (ip), vehicle: saline.
[12] abbreviates: dose: 150.0 mg/kg/injection, schedule: Q01DX001 (ip), vehicle: saline.

Structures are written as SMILES. Values joined by “and” are separate entries in the source; they are usually repeats but may differ in a detail not shown here. Equal values may be shown once. Toxic doses and inconclusive results are not listed.

Regarding `O=C(Nc1ccc(NC(=O)c2ccc(C3=NCCN3)cc2)cc1)Nc1ccc(C2=NCCN2)cc1`, the T/C is, setting by setting: (dose: 6.25 mg/kg/injection, schedule: Q01DX Z (ip), vehicle: carboxymethylcellulose (CMC)) 117 % of control; (dose: 25.0 mg/kg/injection, schedule: Q01DX Z (ip), vehicle: carboxymethylcellulose (CMC)) 206 % of control; (dose: 50.0 mg/kg/injection, schedule: Q01DX Z (ip), vehicle: carboxymethylcellulose (CMC)) 268 % of control; (dose: 62.0 mg/kg/injection, schedule: Q01DX Z (ip), vehicle: carboxymethylcellulose (CMC)) 282 % of control; (dose: 62.0 mg/kg/injection, schedule: Q01DX Z (oral), vehicle: carboxymethylcellulose (CMC)) 120 % of control; (dose: 100.0 mg/kg/injection, schedule: Q01DX Z (ip), vehicle: carboxymethylcellulose (CMC)) 106 % of control. Further, the T/C was 214 % of control (dose: 125.0 mg/kg/injection, schedule: Q01DX Z (ip), vehicle: carboxymethylcellulose (CMC)); 97 % of control (dose: 125.0 mg/kg/injection, schedule: Q01DX Z (oral), vehicle: carboxymethylcellulose (CMC)); 94 % of control (dose: 150.0 mg/kg/injection, schedule: Q01DX Z (ip), vehicle: carboxymethylcellulose (CMC)); 115 % of control (dose: 175.0 mg/kg/injection, schedule: Q01DX Z (ip), vehicle: carboxymethylcellulose (CMC)); 109 % of control (dose: 250.0 mg/kg/injection, schedule: Q01DX Z (ip), vehicle: carboxymethylcellulose (CMC)); 103 % of control (dose: 250.0 mg/kg/injection, schedule: Q01DX Z (oral), vehicle: carboxymethylcellulose (CMC)). In addition, under “dose: 300.0 mg/kg/injection, schedule: Q01DX Z (oral), vehicle: carboxymethylcellulose (CMC)”, the T/C was 103 % of control.

For `Cc1cc[n+](Cc2ccccc2)cc1`, the T/C was 96 % of control (dose: 12.5 mg/kg/injection, schedule: Q04DX003 (ip), vehicle: saline) and 90 % of control (dose: 25.0 mg/kg/injection, schedule: Q04DX003 (ip), vehicle: saline).

As for `CC(C)=CCC/C(C)=C\C=N\NC(N)=S`, the T/C runs as follows: (dose: 50.0 mg/kg/injection, schedule: Q01DX001 (ip), vehicle: carboxymethylcellulose (CMC)) 96 % of control; under setting [1], 104 % of control; under setting [2], 104 % of control.

With `Cc1ccc(NC(Nc2ccc(C)c(Cl)c2)C(Cl)(Cl)Cl)cc1Cl`, the T/C by setting is: (dose: 100.0 mg/kg/injection, schedule: Q01DX009 (ip), vehicle: Klucel (hydroxypropylcellulose) (HPC)) 96 % of control; (dose: 100.0 mg/kg/injection, schedule: Q04DX003 (ip), vehicle: Klucel (hydroxypropylcellulose) (HPC)) 92 % of control; (dose: 200.0 mg/kg/injection, schedule: Q01DX009 (ip), vehicle: Klucel (hydroxypropylcellulose) (HPC)) 92 % of control; (dose: 200.0 mg/kg/injection, schedule: Q04DX003 (ip), vehicle: Klucel (hydroxypropylcellulose) (HPC)) 118 % of control; (dose: 400.0 mg/kg/injection, schedule: Q01DX009 (ip), vehicle: Klucel (hydroxypropylcellulose) (HPC)) 89 % of control; (dose: 400.0 mg/kg/injection, schedule: Q04DX003 (ip), vehicle: Klucel (hydroxypropylcellulose) (HPC)) 103 % of control.

Regarding `CCCC(O)(CC)CCC`, the T/C is, setting by setting: under setting [3], 100 % of control; under setting [4], 100 % of control.

For `CC(=O)OC1c2ccccc2-c2ccc([N+](=O)[O-])cc21` (stereo not given), the T/C is, setting by setting: under setting [3], 93 % of control and 100 % of control; under setting [4], 100 % of control and 102 % of control; under setting [5], 96 % of control and 98 % of control.

As to `CN(C)CCSC1=CC(=O)c2ccccc2C1=O`, the T/C reads like this: (dose: 0.78 mg/kg/injection, schedule: Q01DX009 (ip), vehicle: water) 91 % of control; (dose: 1.56 mg/kg/injection, schedule: Q01DX009 (ip), vehicle: water) 92 % of control.

On to `O=CC1c2ccccc2C(C=O)c2c1ccc1ccccc21` (stereo not given), for which the T/C is 93 % of control (dose: 50.0 mg/kg/injection, schedule: Q01DX001 (ip), vehicle: Klucel (hydroxypropylcellulose) (HPC)); 91 % of control under setting [6]; 100 % of control under setting [7].

`C1=C(c2ccccc2)c2ccccc2C1(c1ccccc1)c1ccccc1`: the T/C reads like this: under setting [3], 97 % of control; under setting [4], 94 % of control; under setting [5], 94 % of control.

Take `CCCc1cnc(NCCCC(N)C(=O)O)nc1` (stereo not given): the T/C is 95 % of control (dose: 25.0 mg/kg/injection, schedule: Q04DX002 (ip), vehicle: saline); 95 % of control (dose: 50.0 mg/kg/injection, schedule: Q04DX002 (ip), vehicle: saline); 89 % of control (dose: 100.0 mg/kg/injection, schedule: Q04DX002 (ip), vehicle: saline).

`CCOC(=S)SCC(=O)c1cccc([N+](=O)[O-])c1`: the T/C runs as follows: (dose: 100.0 mg/kg/injection, schedule: Q01DX001 (ip), vehicle: saline) 107 % of control; (dose: 200.0 mg/kg/injection, schedule: Q01DX001 (ip), vehicle: saline) 103 % of control; (dose: 400.0 mg/kg/injection, schedule: Q01DX001 (ip), vehicle: saline) 101 % of control.

`CC(N)C(=O)NCC(=O)NCC(=O)O` (stereo not given): the T/C was 103 % of control (dose: 100.0 mg/kg/injection, schedule: Q01DX009 (ip), vehicle: saline); 100 % of control under setting [8]; 96 % of control (dose: 200.0 mg/kg/injection, schedule: Q01DX009 (ip), vehicle: saline); 96 % of control under setting [9]; 98 % of control (dose: 400.0 mg/kg/injection, schedule: Q01DX009 (ip), vehicle: saline); 94 % of control under setting [10].

Consider `NOCc1cnccn1`, for which the T/C was 92 % of control under setting [11]; 96 % of control under setting [12]; 88 % of control (dose: 300.0 mg/kg/injection, schedule: Q01DX001 (ip), vehicle: saline).

In the case of `NCC(=O)O`, the T/C is 100 % of control under setting [1]; 92 % of control under setting [2]; 100 % of control (dose: 400.0 mg/kg/injection, schedule: Q01DX001 (ip), vehicle: carboxymethylcellulose (CMC)).

For `CS(=O)(=O)c1ccc(C(O)C(CO)NC(=O)C(Cl)Cl)cc1` (stereo not given), the T/C was 96 % of control (dose: 100.0 mg/kg/injection, schedule: Q04DX002 (ip), vehicle: Klucel (hydroxypropylcellulose) (HPC)); 93 % of control (dose: 200.0 mg/kg/injection, schedule: Q04DX002 (ip), vehicle: Klucel (hydroxypropylcellulose) (HPC)); 90 % of control (dose: 400.0 mg/kg/injection, schedule: Q04DX002 (ip), vehicle: Klucel (hydroxypropylcellulose) (HPC)).

As to `CC(C)(C)OC(=O)COc1ccc(NC(=O)COc2ccc(Cl)c(Cl)c2)cc1`, the T/C reads like this: under setting [6], 101 % of control; under setting [7], 101 % of control; (dose: 400.0 mg/kg/injection, schedule: Q01DX001 (ip), vehicle: Klucel (hydroxypropylcellulose) (HPC)) 101 % of control.

Take `O=[N+]([O-])C(=C\c1ccccc1)/C(=C(/Br)[N+](=O)[O-])c1ccccc1`: the T/C is, setting by setting: under setting [11], 95 % of control; under setting [12], 92 % of control.

Consider `BrC1C2CC(c3ccccc32)C1Br` (stereo not given), for which the T/C is 101 % of control (dose: 100.0 mg/kg/injection, schedule: Q01DX009 (ip), vehicle: saline with Tween-80); 94 % of control under setting [3]; 91 % of control (dose: 200.0 mg/kg/injection, schedule: Q01DX009 (ip), vehicle: saline with Tween-80); 93 % of control under setting [4]; 98 % of control (dose: 400.0 mg/kg/injection, schedule: Q01DX009 (ip), vehicle: saline with Tween-80); 95 % of control under setting [5].

In the case of `[Br][Nd]([Br])[Br]`, the T/C was 96 % of control (dose: 50.0 mg/kg/injection, schedule: Q04DX003 (ip), vehicle: saline); 91 % of control under setting [8]; 97 % of control under setting [9]; 86 % of control under setting [10].

For `C#CCOC(=O)C1C2CCC(O2)C1C(=O)O` (stereo not given), the T/C by setting is: (dose: 1.25 mg/kg/injection, schedule: Q01DX009 (ip), vehicle: saline) 100 % of control; (dose: 2.5 mg/kg/injection, schedule: Q01DX009 (ip), vehicle: saline) 109 % of control.

The record behind these values is PubChem BioAssay AID248 (DTP/NCI, 2004).
